# Literature values as cited in patent publication US5326898A, “Substituted phenylethenyl compounds having retinoid-like biological activity” (Allergan, Inc., priority 1992, dated 1994).
# Tested on: ornithine decarboxylase (ODC)
# Conditions: qualitative; background statement on retinoic acid
compound,measurement,value
CC1=C(/C=C/C(C)=C/C=C/C(C)=C/C(=O)O)C(C)(C)CCC1 [Retinoic acid],inhibition of induction of ODC activity by TPA,inhibits
